Measurements as given in US6143910A, “Methods for preparation and use of 1α, 24(S) -dihydroxy vitamin D2” (priority 1998, dated 2000).
Where two headings read alike, the source gives them in different places.

Legend:
[1] = system: 1,25-(OH)2 D3 receptor site; settings: Ishizuka et al., Steroids 1981, 1982; cited from earlier work
[2] = human, in vivo; cited from earlier work
[3] = Blood metabolite levels in osteoporotic women administered 1α-OH-D2; type: in vivo, human; settings: one day after a single 2 μg dose of 1α-OH-D2
Procedure: An increase in the production of 1α,24(S)-(OH)2 D2 relative to 1α,25-(OH)2 D2 has also been observed by the present inventors in human females who received 1α-OH-D2 as part of an investigation of that drug for the treatment of osteoporosis. Following either a single dose of 2 μg of 1α-OH-D2 or daily doses of 8 μg/day for one week, blood was collected and analyzed for the metabolites 1α,24(S)-(OH)2 D2 and 1α,25-(OH)2 D2. Lipid was extracted from the blood, and the metabolites were purified by HPLC using standard methods and quantified with the radioreceptor assay produced by Incstar (Stillwater, Minn.). One day after a single 2 μg dose, the level of 1α,24(S)-(OH)2 D2 was undetectable with the 1α,25-(OH)2 D2 level being approximately 11 pg/ml. In contrast, one day following the last dose of 8 μg, the level of 1α,24(S)-(OH)2 D2 averaged 9 pg/ml with the 1α,25-(OH)2 D2 level averaging 30 pg/ml.

[4] = type: in vivo, rat
Procedure: Vitamin D2 or 24-OH-D2 was administered (either oral or intraperitoneal supplementation) to vitamin D-deficient rats. Lipid extracts of the plasma were prepared and the metabolites purified by the method of Horst et al. (Horst, R. L., Koszewski, N. J. and Reinhardt, T. A., Biochem., 29:578-82 (1990)) described below for synthesyzing standard biological 1α,24-(OH)2 D2.
Standard biological 1α,24-(OH)2 D2 was synthesized in vitro from 24-OH-D2 by incubating 10 μg of 24-OH-D2 in flask containing 5 ml of 20% kidney homogenates made from vitamin D-deficient chicks. The product of this reaction was isolated by HPLC and identified by mass spectrometry.

## C=C1/C(=C\C=C2/CCC[C@]3(C)[C@@H]([C@H](C)CC[C@@H](O)C(C)C)CC[C@@H]23)C[C@@H](O)C[C@@H]1O [1α,24(R)-(OH)2 D3, 1α,24(R)-dihydroxyvitamin D3]
[1]
  Binding of the 1,25-(OH)2 D3 receptor site relative to 1,25-(OH)2 D3: more tightly than does 1,25-(OH)2 D3 itself

## C=C1/C(=C\C=C2/CCC[C@]3(C)[C@@H]([C@H](C)CCCC(C)C)CC[C@@H]23)C[C@@H](O)C[C@@H]1O [1α-(OH)D3, 1α-hydroxy vitamin D3]
[2]
  Safety of dosage levels of 2.0 μg/day or greater: not safely obtained

## C=C1/C(=C\C=C2/CCC[C@]3(C)[C@@H]([C@H](C)/C=C/[C@H](C)C(C)C)CC[C@@H]23)C[C@@H](O)C[C@@H]1O [1α-OH-D2, 1α-hydroxy vitamin D2]
[3]
  Blood level of metabolite 1α,24(S)-(OH)2 D2: undetectable

## C=C1CC[C@H](O)C/C1=C/C=C1\CCC[C@]2(C)[C@@H]([C@H](C)/C=C/C(C)(O)C(C)C)CC[C@@H]12 (stereo partly drawn) [24-OH-D2, 24-hydroxyvitamin D2]
[4]; rat, in vivo
  1α,24-(OH)2 D2 metabolite in plasma lipid extracts: co-migrated on HPLC with the standard 1α,24-(OH)2 D2

## C=C1CC[C@H](O)C/C1=C/C=C1\CCC[C@]2(C)[C@@H]([C@H](C)/C=C/[C@H](C)C(C)C)CC[C@@H]12 [vitamin D2]
[4]; vitamin D-deficient rats, oral or intraperitoneal, HPLC
  1α,24-(OH)2 D2 metabolite in plasma lipid extracts: co-migrated on HPLC with the standard 1α,24-(OH)2 D2

## C=C1CC[C@H](O)C/C1=C/C=C1\CCC[C@]2(C)[C@@H]([C@H](C)CCCC(C)C)CC[C@@H]12 [vitamin D3]
[4]; comparable vitamin D-deficient rats
  24-OH-D3 in plasma: no detectable 24-OH-D3
